Test results as given in ChEMBL document CHEMBL3991601, “The target landscape of clinical kinase drugs” (Science, 2017).
Calls of active or inactive are those of the source.

Columns and labels:
[1] = target: T1, Serine/threonine-protein kinase LATS1 (Homo sapiens, UniProt O95835)
T1 sequence (O95835 whole entry): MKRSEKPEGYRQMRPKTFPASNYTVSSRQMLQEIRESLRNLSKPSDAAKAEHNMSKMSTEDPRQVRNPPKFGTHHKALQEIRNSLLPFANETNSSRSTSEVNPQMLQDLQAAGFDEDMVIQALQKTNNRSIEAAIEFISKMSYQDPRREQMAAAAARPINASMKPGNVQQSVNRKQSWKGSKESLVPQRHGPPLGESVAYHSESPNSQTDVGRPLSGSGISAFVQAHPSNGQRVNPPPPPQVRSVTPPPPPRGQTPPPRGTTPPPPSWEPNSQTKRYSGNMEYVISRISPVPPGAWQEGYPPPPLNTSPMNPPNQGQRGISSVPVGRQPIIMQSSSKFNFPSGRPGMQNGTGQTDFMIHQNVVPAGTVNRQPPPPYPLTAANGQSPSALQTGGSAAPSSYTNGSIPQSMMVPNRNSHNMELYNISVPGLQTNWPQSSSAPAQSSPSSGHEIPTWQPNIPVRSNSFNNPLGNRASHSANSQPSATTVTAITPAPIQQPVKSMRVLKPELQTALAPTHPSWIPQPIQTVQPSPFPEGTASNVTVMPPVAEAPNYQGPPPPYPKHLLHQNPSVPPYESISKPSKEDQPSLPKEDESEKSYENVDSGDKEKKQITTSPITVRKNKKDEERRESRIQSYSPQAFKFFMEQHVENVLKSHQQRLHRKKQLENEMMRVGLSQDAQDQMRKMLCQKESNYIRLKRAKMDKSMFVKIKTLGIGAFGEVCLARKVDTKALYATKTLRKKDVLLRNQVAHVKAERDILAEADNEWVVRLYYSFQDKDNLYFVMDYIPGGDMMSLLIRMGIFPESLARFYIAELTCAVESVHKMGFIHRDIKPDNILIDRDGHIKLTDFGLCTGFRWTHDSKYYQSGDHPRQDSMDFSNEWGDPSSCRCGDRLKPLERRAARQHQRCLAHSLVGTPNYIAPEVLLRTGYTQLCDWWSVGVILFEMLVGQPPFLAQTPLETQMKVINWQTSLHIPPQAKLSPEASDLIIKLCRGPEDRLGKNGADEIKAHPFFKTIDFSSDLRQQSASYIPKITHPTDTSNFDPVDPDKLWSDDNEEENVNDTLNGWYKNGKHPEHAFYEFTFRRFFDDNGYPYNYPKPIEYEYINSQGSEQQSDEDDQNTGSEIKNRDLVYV

[2] = target: Ribosomal protein S6 kinase alpha-4 (Homo sapiens, UniProt O75676)
[3] = target: Mitotic checkpoint serine/threonine-protein kinase BUB1 (Homo sapiens, UniProt O43683)
[4] = target: Mitogen-activated protein kinase 3 (Homo sapiens, UniProt P27361)
Midasin = Midasin (Homo sapiens, UniProt Q9NU22)
ADP/ATP translocase 2 = target: T2, ADP/ATP translocase 2 (Homo sapiens, UniProt P05141)
T2 sequence (P05141 whole entry): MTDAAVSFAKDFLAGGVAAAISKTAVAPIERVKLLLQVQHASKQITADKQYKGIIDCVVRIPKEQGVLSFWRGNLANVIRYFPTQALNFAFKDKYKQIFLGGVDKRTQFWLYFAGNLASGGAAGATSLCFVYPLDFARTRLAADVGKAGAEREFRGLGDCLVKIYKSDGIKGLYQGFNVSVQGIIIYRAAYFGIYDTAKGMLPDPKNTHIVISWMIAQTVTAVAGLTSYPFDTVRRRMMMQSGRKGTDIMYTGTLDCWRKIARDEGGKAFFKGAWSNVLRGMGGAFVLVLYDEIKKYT

[5] = target: 5'-AMP-activated protein kinase catalytic subunit alpha-1 (Homo sapiens, UniProt Q13131)
[6] = target: T3, Cysteine--tRNA ligase, cytoplasmic (Homo sapiens, UniProt P49589)
T3 sequence (P49589 whole entry): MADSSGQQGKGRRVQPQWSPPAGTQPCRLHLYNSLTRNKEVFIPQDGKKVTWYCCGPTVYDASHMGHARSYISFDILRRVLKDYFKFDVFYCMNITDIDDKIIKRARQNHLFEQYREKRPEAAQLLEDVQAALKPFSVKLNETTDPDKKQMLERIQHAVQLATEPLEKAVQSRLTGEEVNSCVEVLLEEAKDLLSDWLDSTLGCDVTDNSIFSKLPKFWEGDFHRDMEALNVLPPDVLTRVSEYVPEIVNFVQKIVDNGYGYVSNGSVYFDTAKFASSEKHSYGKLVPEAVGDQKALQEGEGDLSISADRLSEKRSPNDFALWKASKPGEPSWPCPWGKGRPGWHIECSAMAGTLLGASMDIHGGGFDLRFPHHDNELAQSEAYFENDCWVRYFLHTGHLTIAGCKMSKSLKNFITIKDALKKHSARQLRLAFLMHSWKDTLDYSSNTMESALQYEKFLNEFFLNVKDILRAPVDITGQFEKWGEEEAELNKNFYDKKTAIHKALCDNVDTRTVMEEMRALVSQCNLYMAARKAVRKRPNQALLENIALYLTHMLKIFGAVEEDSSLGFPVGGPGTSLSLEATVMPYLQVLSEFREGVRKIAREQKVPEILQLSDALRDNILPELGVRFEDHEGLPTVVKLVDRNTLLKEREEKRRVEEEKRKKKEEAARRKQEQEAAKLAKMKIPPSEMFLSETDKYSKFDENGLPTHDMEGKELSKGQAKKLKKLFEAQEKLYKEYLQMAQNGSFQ

[7] = target: Serine/threonine-protein kinase B-raf (Homo sapiens, UniProt P15056)
[8] = target: T4, Probable ATP-dependent RNA helicase DDX6 (Homo sapiens, UniProt P26196)
T4 sequence (P26196 whole entry): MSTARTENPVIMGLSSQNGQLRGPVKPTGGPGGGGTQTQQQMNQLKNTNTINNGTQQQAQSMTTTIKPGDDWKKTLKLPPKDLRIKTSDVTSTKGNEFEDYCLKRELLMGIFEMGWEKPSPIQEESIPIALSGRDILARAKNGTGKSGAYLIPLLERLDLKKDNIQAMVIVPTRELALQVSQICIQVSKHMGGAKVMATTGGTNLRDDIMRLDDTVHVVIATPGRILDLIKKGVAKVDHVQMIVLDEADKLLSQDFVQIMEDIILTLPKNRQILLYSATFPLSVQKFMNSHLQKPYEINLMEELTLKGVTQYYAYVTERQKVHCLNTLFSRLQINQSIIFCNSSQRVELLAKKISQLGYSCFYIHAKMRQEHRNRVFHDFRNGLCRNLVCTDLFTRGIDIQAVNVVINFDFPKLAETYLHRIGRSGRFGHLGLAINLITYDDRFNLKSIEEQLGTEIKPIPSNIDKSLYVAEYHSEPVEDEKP
Further: in the data inactive means no Kd found up to 30 µM.

Sequence of 5'-AMP-activated protein kinase catalytic subunit alpha-1 (Q13131 whole entry): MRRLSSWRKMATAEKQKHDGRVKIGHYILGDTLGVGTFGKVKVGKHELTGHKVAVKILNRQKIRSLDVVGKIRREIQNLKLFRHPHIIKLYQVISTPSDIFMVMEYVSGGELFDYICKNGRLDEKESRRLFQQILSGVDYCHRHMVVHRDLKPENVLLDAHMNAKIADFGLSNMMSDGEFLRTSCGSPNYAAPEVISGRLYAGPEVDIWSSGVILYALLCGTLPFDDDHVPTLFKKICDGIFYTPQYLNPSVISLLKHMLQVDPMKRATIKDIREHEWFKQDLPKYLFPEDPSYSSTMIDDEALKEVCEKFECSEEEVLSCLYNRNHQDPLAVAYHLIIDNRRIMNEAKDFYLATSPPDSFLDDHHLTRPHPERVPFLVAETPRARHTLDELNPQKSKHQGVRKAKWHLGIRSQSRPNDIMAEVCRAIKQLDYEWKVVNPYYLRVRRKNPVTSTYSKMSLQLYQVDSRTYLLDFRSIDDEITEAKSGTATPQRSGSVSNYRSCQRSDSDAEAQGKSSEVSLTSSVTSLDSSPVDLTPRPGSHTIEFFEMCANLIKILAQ
Sequence of Mitogen-activated protein kinase 3 (P27361 whole entry): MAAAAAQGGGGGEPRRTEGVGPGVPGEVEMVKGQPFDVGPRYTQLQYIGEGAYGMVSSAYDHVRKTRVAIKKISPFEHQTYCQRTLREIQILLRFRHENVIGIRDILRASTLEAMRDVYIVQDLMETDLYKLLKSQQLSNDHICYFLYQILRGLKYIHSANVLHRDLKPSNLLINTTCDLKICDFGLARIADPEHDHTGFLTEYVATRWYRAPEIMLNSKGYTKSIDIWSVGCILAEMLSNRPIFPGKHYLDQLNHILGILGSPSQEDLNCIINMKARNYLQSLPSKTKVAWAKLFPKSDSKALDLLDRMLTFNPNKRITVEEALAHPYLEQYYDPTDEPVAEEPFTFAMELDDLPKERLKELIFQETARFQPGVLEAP
Sequence of Mitotic checkpoint serine/threonine-protein kinase BUB1 (O43683 whole entry): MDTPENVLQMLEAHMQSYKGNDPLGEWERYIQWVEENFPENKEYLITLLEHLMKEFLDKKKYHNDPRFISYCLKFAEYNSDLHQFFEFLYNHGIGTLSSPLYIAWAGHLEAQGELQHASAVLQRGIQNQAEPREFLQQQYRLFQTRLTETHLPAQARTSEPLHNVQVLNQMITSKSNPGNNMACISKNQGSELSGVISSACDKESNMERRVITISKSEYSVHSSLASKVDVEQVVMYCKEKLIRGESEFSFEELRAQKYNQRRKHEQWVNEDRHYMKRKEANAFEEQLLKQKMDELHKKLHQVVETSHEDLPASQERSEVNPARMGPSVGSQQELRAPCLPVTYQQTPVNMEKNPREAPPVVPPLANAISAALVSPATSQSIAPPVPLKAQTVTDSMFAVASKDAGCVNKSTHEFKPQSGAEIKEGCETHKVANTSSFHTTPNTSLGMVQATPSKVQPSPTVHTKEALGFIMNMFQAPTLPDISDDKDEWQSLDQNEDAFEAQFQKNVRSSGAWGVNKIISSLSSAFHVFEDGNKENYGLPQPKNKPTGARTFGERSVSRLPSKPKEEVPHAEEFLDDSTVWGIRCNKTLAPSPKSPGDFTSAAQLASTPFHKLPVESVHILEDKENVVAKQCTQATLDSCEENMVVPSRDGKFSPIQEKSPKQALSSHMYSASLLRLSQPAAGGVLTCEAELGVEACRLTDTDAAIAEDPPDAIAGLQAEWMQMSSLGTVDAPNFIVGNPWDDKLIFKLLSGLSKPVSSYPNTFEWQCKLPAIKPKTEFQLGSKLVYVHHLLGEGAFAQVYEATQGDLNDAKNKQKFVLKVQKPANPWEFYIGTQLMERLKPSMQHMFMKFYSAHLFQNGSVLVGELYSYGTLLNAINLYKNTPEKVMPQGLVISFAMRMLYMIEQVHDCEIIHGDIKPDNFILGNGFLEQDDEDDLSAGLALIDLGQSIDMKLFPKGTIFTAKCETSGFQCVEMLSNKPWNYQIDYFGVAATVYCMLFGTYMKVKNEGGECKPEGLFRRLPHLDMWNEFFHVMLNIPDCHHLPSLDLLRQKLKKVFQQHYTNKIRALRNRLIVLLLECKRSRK
Sequence of Ribosomal protein S6 kinase alpha-4 (O75676 whole entry): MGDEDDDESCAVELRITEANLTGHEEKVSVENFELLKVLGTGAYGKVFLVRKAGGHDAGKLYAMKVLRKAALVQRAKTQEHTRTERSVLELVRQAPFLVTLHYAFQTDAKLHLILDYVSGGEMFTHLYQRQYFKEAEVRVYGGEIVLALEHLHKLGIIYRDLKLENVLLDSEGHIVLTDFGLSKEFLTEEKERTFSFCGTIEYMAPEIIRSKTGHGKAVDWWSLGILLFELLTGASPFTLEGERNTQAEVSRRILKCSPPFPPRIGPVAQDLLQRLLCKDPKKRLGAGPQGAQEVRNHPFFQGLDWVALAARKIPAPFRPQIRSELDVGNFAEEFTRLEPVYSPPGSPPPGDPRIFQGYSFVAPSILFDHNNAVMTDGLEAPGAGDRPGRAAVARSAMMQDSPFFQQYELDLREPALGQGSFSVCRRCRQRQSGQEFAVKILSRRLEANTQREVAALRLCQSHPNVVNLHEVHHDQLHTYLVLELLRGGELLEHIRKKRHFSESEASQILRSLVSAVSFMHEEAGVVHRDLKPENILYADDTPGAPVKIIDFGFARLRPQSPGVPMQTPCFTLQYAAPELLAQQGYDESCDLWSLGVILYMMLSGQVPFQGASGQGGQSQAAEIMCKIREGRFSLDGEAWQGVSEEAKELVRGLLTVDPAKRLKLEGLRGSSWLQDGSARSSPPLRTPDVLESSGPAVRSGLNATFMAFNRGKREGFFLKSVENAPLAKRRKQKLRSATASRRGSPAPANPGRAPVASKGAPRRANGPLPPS
Sequence of Serine/threonine-protein kinase B-raf (P15056 whole entry): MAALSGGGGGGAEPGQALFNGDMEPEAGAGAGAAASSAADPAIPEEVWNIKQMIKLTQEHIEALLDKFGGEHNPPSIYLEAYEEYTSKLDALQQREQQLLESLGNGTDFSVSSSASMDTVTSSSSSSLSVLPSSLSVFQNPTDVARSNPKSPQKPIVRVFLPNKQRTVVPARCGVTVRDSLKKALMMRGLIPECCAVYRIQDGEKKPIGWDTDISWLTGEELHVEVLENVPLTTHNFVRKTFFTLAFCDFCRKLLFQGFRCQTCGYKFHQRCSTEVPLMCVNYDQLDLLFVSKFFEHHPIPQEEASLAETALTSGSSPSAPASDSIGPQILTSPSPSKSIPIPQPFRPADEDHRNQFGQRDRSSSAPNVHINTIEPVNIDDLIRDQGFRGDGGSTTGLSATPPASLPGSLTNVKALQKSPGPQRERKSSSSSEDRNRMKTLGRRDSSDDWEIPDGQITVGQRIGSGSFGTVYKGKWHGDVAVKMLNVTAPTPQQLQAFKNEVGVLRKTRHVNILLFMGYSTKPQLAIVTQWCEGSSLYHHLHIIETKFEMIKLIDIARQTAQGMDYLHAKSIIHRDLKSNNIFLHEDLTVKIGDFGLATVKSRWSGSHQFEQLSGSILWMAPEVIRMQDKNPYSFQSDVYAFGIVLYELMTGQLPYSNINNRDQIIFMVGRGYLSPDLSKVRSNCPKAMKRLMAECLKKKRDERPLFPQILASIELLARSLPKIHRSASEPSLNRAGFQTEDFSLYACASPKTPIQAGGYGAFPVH

Compound | Kd [1] | Kd [2] | Kd [3] | Kd [4] | Kd (Midasin) | Kd (ADP/ATP translocase 2) | Kd [5] | Kd [6] | Kd [7] | Kd [8]
CO[C@H]1C[C@@H]2CC[C@@H](C)[C@@](O)(O2)C(=O)C(=O)N2CCCC[C@H]2C(=O)O[C@H]([C@H](C)C[C@@H]2CC[C@@H](OC(=O)C(C)(CO)CO)[C@H](OC)C2)CC(=O)[C@H](C)/C=C(\C)[C@@H](O)[C@@H](OC)C(=O)[C@H](C)C[C@H](C)/C=C/C=C/C=C/1C [TEMSIROLIMUS] | > 30 µM (inactive) | > 30 µM (inactive) | > 30 µM (inactive) | > 30 µM (inactive) | > 30 µM (inactive) | > 30 µM (inactive) | > 30 µM (inactive) | > 30 µM (inactive) | > 30 µM (inactive) | > 30 µM (inactive)
O=C(Cc1ccc(-c2ccc(OCCN3CCOCC3)cc2)cn1)NCc1ccccc1 [TIRBANIBULIN] | > 30 µM (inactive) | > 30 µM (inactive) | > 30 µM (inactive) | > 30 µM (inactive) | > 30 µM (inactive) | > 30 µM (inactive) | > 30 µM (inactive) | > 30 µM (inactive) | > 30 µM (inactive) | > 30 µM (inactive)
O=C1NC(=O)[C@@H](c2cn3c4c(cccc24)CCC3)[C@@H]1c1c[nH]c2ccccc12 [TIVANTINIB] | > 30 µM (inactive) | > 30 µM (inactive) | > 30 µM (inactive) | > 30 µM (inactive) | > 30 µM (inactive) | > 30 µM (inactive) | > 30 µM (inactive) | > 30 µM (inactive) | > 30 µM (inactive) | > 30 µM (inactive)
CC(C)c1cc(CNc2nc(Nc3cc(C4CC4)[nH]n3)cc(N3CCN(C)CC3)n2)on1 [XL-228] | > 30 µM (inactive) | > 30 µM (inactive) | > 30 µM (inactive) | > 30 µM (inactive) | > 30 µM (inactive) | > 30 µM (inactive) | 0.38 µM (active) | > 30 µM (inactive) | > 30 µM (inactive) | > 30 µM (inactive)
